Data taken from publication PMC10035947, “Development of novel anilinoquinazoline-based carboxylic acids as non-classical carbonic anhydrase IX and XII inhibitors” (Journal of Enzyme Inhibition and Medicinal Chemistry, 2023).

Assays:
[1] = test system: UACC-257; assay: NCI SRB assay; format: cell-based, human
[2] = test system: HOP-92; assay: NCI SRB assay; format: cell-based, human
[3] = test system: LOX IMVI; assay: NCI SRB assay; format: cell-based, human
[4] = test system: NCI-H23; assay: NCI SRB assay; format: cell-based, human; details: NCI-H23, 1.00E-5 Molar
[5] = test system: NCI-H226; assay: NCI SRB assay; format: cell-based, human
[6] = test system: SF-268; assay: NCI SRB assay; format: cell-based, human
[7] = test system: RPMI-8226; assay: NCI SRB assay; format: cell-based, human
[8] = test system: DU-145; assay: NCI SRB assay; format: cell-based, human
[9] = test system: BT-549; assay: NCI SRB assay; format: cell-based, human
[10] = test system: NCI-H322M; assay: NCI SRB assay; format: cell-based, human
[11] = test system: A498; assay: NCI SRB assay; format: cell-based, human
[12] = test system: CAKI-1; assay: NCI SRB assay; format: cell-based, human
[13] = test system: HCT-15; assay: NCI SRB assay; format: cell-based, human
[14] = test system: IGROV1; assay: NCI SRB assay; format: cell-based, human
[15] = test system: UACC-62; assay: NCI SRB assay; format: cell-based, human
[16] = test system: NCI/ADR-RES; assay: NCI SRB assay; format: cell-based, human
[17] = test system: SNB-19; assay: NCI SRB assay; format: cell-based, human
[18] = test system: HL-60(TB); assay: NCI SRB assay; format: cell-based, human; details: HL-60(TB)
[19] = test system: CCRF-CEM; assay: NCI SRB assay; format: cell-based, human
[20] = target: T1, hCA I (Homo sapiens, UniProt P00915); assay: stopped flow CO2 hydrase assay; format: biochemical; details: mean from 3 assays
T1 construct: made in house
Method: (§1) Carbonic anhydrase inhibition assay
(§2) The carbonic anhydrase catalyzed CO2 hydration actions for the quinazoline-based […]
(§3) Photophysics stopped-flow, as described previously. The enzymes are recombinant proteins prepared in our lab. Phenol red (at a concentration of 0.2 mM) has been used as indicator, working at the absorbance maximum of 557 nm, with 20 mM Hepes (pH 7.5) as buffer, and 20 mM Na2SO4 (for maintaining constant the ionic strength), following the initial rates of the CA- […]
(§4) 1.7 to 17 mM for the determination of the kinetic parameters and inhibition constants. For each […]
(§5) initial velocity. The uncatalyzed rates were determined in the same manner and subtracted from the total observed rates. Stock solutions of inhibitor (0.1 mM) were prepared in distilled-deionized water and dilutions up to 0.01 nM were done thereafter with the assay buffer. Inhibitor and enzyme solutions were preincubated together for 15 min at room temperature prior to assay, in order to allow for the formation of the E-I complex. The inhibition constants were obtained by non-linear least-squares methods using PRISM 3 and the Cheng-Prusoff equation, and represent the mean from at least three different determinations.

[21] = target: T2, hCA XII (Homo sapiens, UniProt O43570); assay: stopped flow CO2 hydrase assay; format: biochemical
T2 construct: made in house
Method: as §1, §2, §3, §4, §5

[22] = target: T3, hCA IX (Homo sapiens, UniProt Q16790); assay: stopped flow CO2 hydrase assay; format: biochemical
T3 construct: made in house
Method: as §1, §2, §3, §4, §5

[23] = test system: MCF7; assay: NCI SRB assay; format: cell-based, human
[24] = test system: ACHN; assay: NCI SRB assay; format: cell-based, human
[25] = test system: SK-OV-3; assay: NCI SRB assay; format: cell-based, human
[26] = test system: SF-295; assay: NCI SRB assay; format: cell-based, human
[27] = test system: SK-MEL-2; assay: NCI SRB assay; format: cell-based, human
[28] = test system: EKVX; assay: NCI SRB assay; format: cell-based, human

T2 sequence (O43570 25-354): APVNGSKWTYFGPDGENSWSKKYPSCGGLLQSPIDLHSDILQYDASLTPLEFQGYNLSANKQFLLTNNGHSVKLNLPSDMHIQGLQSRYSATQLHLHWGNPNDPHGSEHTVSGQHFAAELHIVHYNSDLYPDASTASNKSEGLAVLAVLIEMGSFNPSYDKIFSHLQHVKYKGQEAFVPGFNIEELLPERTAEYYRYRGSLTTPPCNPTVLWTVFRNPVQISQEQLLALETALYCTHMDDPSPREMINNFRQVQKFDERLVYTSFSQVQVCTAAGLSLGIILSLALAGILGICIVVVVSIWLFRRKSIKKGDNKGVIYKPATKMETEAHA
T1 sequence (P00915 whole entry): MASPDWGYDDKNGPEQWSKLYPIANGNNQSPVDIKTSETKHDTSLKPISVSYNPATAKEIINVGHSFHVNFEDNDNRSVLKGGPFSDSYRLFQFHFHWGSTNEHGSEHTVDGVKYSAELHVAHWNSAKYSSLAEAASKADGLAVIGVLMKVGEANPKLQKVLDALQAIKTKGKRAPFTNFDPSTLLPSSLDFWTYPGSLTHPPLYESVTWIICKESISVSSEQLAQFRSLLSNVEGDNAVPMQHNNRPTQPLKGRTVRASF

In the case of Cc1cccc(-c2nc(Nc3ccc(C(=O)O)cc3)c3ccccc3n2)c1 [8a, 4-((2-(m-Tolyl)quinazolin-4-yl)amino)benzoic acid], the GI% ([1]; UACC-257, 10 μM) is reported as “– (Only GI% higher than 20% are shown)”, the “Growth Percent” value ([1]; UACC-257, 1.00E-5 Molar) is reported as 101.78% and the GI% ([2]; HOP-92, 10 μM) is reported as 29%. For the same compound, the “Growth Percent” value ([2]; HOP-92, 1.00E-5 Molar) was 71.13%, the GI% ([3]; 10 μM) was 29% and the “Growth Percent” value ([3]; 1.00E-5 Molar) was 71.49%. For the same compound, the “Growth Percent” value [4] was 99.04%, the GI% ([5]; NCI-H226, 10 μM) was 52% and the “Growth Percent” value ([5]; NCI-H226, 1.00E-5 Molar) was 47.62%. The GI% ([6]; SF-268, 10 μM) was 37%, the “Growth Percent” value ([6]; SF-268, 1.00E-5 Molar) was 62.51% and the GI% ([7]; RPMI-8226, 10 μM) was 30%. The “Growth Percent” value ([7]; RPMI-8226, 1.00E-5 Molar) was 70.27%, the GI% ([8]; DU-145, 10 μM) was “– (Only GI% higher than 20% are shown)” and the “Growth Percent” value ([8]; DU-145, 1.00E-5 Molar) was 87.83%. The GI% ([9]; BT-549, 10 μM) was 34%, the “Growth Percent” value ([9]; BT-549, 1.00E-5 Molar) was 66.04% and the GI% ([10]; 10 μM) was “– (Only GI% higher than 20% are shown)”. For the same compound, the “Growth Percent” value ([10]; 1.00E-5 Molar) was 103.28%, the GI% ([11]; A498, 10 μM) was 54% and the “Growth Percent” value ([11]; A498, 1.00E-5 Molar) was 45.68%. For the same compound, the GI% ([12]; CAKI-1, 10 μM) was “– (Only GI% higher than 20% are shown)”, the “Growth Percent” value ([12]; CAKI-1, 1.00E-5 Molar) was 94.53% and the GI% ([13]; HCT-15, 10 μM) was 29%. The “Growth Percent” value ([13]; HCT-15, 1.00E-5 Molar) was 70.54%, the GI% ([14]; IGROV1, 10 μM) was “– (Only GI% higher than 20% are shown)” and the “Growth Percent” value ([14]; IGROV1, 1.00E-5 Molar) was 110.06%. The GI% ([15]; UACC-62, 10 μM) was “– (Only GI% higher than 20% are shown)”, the “Growth Percent” value ([15]; UACC-62, 1.00E-5 Molar) was 104.52% and the GI% ([16]; 10 μM) was “– (Only GI% higher than 20% are shown)”. The “Growth Percent” value ([16]; 1.00E-5 Molar) was 84.58%, the GI% ([17]; SNB-19, 10 μM) was 33% and the “Growth Percent” value ([17]; SNB-19, 1.00E-5 Molar) was 67.24%. The GI% ([18]; 10 μM) was “– (Only GI% higher than 20% are shown)”, the “Growth Percent” value ([18]; 1.00E-5 Molar) was 92.72% and the GI% ([19]; 10 μM) was 25%. The “Growth Percent” value ([19]; 1.00E-5 Molar) was 74.58%, the Ki [20] was 87.7 µM and the “Selectivity ratio I/XII” value ([21]; KI hCA I / KI hCA XII) was 23.1. For the same compound, the “Selectivity ratio II/XII” value ([21]; KI hCA II / KI hCA XII) was 2.45, the Ki ([21]; mean from 3 assays) was 3.8 µM and the “Selectivity ratio I/IX” value ([22]; KI hCA I / KI hCA IX) was 20.4. The “Selectivity ratio II/IX” value ([22]; KI hCA II / KI hCA IX) was 2.16, the Ki ([22]; mean from 3 assays) was 4.3 µM and the GI% ([23]; MCF7, 10 μM) was “– (Only GI% higher than 20% are shown)”. For the same compound, the “Growth Percent” value ([23]; MCF7, 1.00E-5 Molar) was 88.63%, the GI% ([24]; 10 μM) was “– (Only GI% higher than 20% are shown)” and the “Growth Percent” value ([24]; 1.00E-5 Molar) was 85.41%. For the same compound, the GI% ([25]; SK-OV-3, 10 μM) was “– (Only GI% higher than 20% are shown)”, the “Growth Percent” value ([25]; SK-OV-3, 1.00E-5 Molar) was 108.70% and the GI% ([26]; SF-295, 10 μM) was 36%. For the same compound, the “Growth Percent” value ([26]; SF-295, 1.00E-5 Molar) was 63.92%, the GI% ([27]; SK-MEL-2, 10 μM) was “– (Only GI% higher than 20% are shown)” and the “Growth Percent” value ([27]; SK-MEL-2, 1.00E-5 Molar) was 123.11%. For the same compound, the GI% ([28]; 10 μM) was “– (Only GI% higher than 20% are shown)” and the “Growth Percent” value ([28]; 1.00E-5 Molar) was 82.93%.
